Patent US20260055083A1, “APOL1 INHIBITORS AND METHODS OF USE” (Maze Therapeutics, Inc., priority 2022, published 2026)

Assays:
APOL1 G2 [1] = biological target: T1, APOL1 G2 (Homo sapiens, UniProt O14791, DEL388-389); test: APOL1 G2 FLIPR calcium influx assay (HEK T-REx/GCaMP6f/APOL1 G2 K6.3 cells); assay type: cell-based; settings: HEK293 clone expressing GCaMP6f, doxycycline-induced APOL1 G2; prevention of calcium influx; geometric mean of at least 2 assay runs
T1 construct: expressed in transfected cells; host or cells: HEK293/T-REx APOL1 G2 clone #2, doxycycline-inducible
T1 sequence (O14791 with tags, fused parts or gaps DEL388-389): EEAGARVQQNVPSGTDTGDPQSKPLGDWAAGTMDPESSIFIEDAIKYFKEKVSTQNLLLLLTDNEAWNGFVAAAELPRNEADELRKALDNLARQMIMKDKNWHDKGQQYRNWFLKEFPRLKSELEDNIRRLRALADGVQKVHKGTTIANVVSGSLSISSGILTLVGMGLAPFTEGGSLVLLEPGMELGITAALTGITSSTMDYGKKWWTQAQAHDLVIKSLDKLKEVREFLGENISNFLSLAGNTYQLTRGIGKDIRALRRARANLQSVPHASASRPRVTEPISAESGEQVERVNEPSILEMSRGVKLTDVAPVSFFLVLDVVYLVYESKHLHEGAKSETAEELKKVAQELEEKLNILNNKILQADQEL
Method in brief: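 Cells express GCaMP6f stably and APOL1 G2 after a 6 h doxycycline induction. Duplicate 8-point dilutions sit 10 min at room temperature in Ca2+-free Tyrode's (pH 7.4), then Ca2+ is injected to 5 mM final and the FLIPR signal recorded. AC50s are geometric means across ≥2 days.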

APOL1 G2 [2] = biological target: T1, APOL1 G2; test: APOL1 G2 HEK293 rescue of cell death caused by overexpression of APOL1 (CellTiter-Glo); assay type: cell-based; settings: HEK293/T-REx APOL1 G2 clone #2, doxycycline induction, 17 hours, CellTiter-Glo luminescence; reversal of cell death; geometric mean of at least 2 assay runs
Method in brief: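 Viability read by CellTiter-Glo luminescence after 17 h, 37 °C, in HEK293/T-REx cells expressing APOL1 G2 on 6 ng/mL doxycycline, 5,000 cells/well. Compounds tested as duplicate 8-point, 3-fold dilutions, 0.5% DMSO final; four-parameter logistic EC50, usually geometric mean of ≥2 days.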

SMILES	AC50 (APOL1 G2 [1]) [nM]	EC50 (APOL1 G2 [2]) [nM]
Cc1cc(OC[C@H]2C[C@@H](C)N(CC(O)c3cccc(C#N)c3)C2)cnc1S(C)(=O)=O (single isomer, unassigned) [Compound 95, 3-[(1R or 1S)-1-hydroxy-2-[(2R,4S)-4-{[(6-methanesulfonyl-5-methylpyridin-3-yl)oxy]methyl}-2-methylpyrrolidin-1-yl]ethyl]benzonitrile]	1040	1140
Cc1cc(OC[C@H]2C[C@@H](C)N(CC(O)c3cccc(C#N)c3)C2)cnc1S(C)(=O)=O (single isomer, unassigned) [Compound 96, 3-[(1S or 1R)-1-hydroxy-2-[(2R,4S)-4-{[(6-methanesulfonyl-5-methylpyridin-3-yl)oxy]methyl}-2-methylpyrrolidin-1-yl]ethyl]benzonitrile]	188	27.7
CC(C(O)c1cc(Cl)cc(C#N)c1)N1C[C@@H](COc2ccc(S(C)(=O)=O)cc2)C[C@H]1C (single isomer, unassigned) [Compound 97, 3-chloro-5-[(1S,2S or 1R,2R or 1R,2S or 1S,2R)-1-hydroxy-2-[(2R,4S)-4-[(4-methanesulfonylphenoxy)methyl]-2-methylpyrrolidin-1-yl]propyl]benzonitrile]	813	2100
CC(C(O)c1cc(Cl)cc(C#N)c1)N1C[C@@H](COc2ccc(S(C)(=O)=O)cc2)C[C@H]1C (single isomer, unassigned) [Compound 98, 3-chloro-5-[(1R,2S or 1S,2R or 1S,2S or 1R,2R)-1-hydroxy-2-[(2R,4S)-4-[(4-methanesulfonylphenoxy)methyl]-2-methylpyrrolidin-1-yl]propyl]benzonitrile]	2840	> 10000
CC(C(O)c1cc(Cl)cc(C#N)c1)N1C[C@@H](COc2ccc(S(C)(=O)=O)cc2)C[C@H]1C (single isomer, unassigned) [Compound 99, 3-chloro-5-[(1S,2R or 1R,2S or 1S,2S or 1R,2R)-1-hydroxy-2-[(2R,4S)-4-[(4-methanesulfonylphenoxy)methyl]-2-methylpyrrolidin-1-yl]propyl]benzonitrile]	1690	252
CC(C(O)c1cc(Cl)cc(C#N)c1)N1C[C@@H](COc2ccc(S(C)(=O)=O)cc2)[C@H](C)C1 (single isomer, unassigned) [Compound 100, 3-chloro-5-((1R,2S or 1S,2R)-1-hydroxy-2-((3S,4S)-3-methyl-4-((4-(methylsulfonyl)phenoxy)methyl)pyrrolidin-1-yl)propyl)benzonitrile]	575	948
CC(C(O)c1cc(Cl)cc(C#N)c1)N1C[C@@H](COc2ccc(S(C)(=O)=O)cc2)[C@H](C)C1 (single isomer, unassigned) [Compound 101, 3-chloro-5-((1S,2R or 1R,2S)-1-hydroxy-2-((3S,4S)-3-methyl-4-((4-(methylsulfonyl)phenoxy)methyl)pyrrolidin-1-yl)propyl)benzonitrile]	765	> 10000
CC(C(O)c1cc(Cl)cc(C#N)c1)N1C[C@@H](COc2ccc(S(C)(=O)=O)cc2)[C@H](C)C1 (single isomer, unassigned) [Compound 102, 3-chloro-5-((1R,2R or 1S,2S)-1-hydroxy-2-((3S,4S)-3-methyl-4-((4-(methylsulfonyl)phenoxy)methyl)pyrrolidin-1-yl)propyl)benzonitrile]	744	> 10000
CC(C(O)c1cc(Cl)cc(C#N)c1)N1C[C@@H](COc2ccc(S(C)(=O)=O)cc2)[C@H](C)C1 (single isomer, unassigned) [Compound 103, 3-chloro-5-((1S,2S or 1R,2R)-1-hydroxy-2-((3S,4S)-3-methyl-4-((4-(methylsulfonyl)phenoxy)methyl)pyrrolidin-1-yl)propyl)benzonitrile]	905	655
C[C@@H]1CN(CC(O)c2cccc(C#N)c2)C[C@H]1COc1ccc(S(C)(=O)=O)nc1 (single isomer, unassigned) [Compound 105, 3-[(1S or 1R)-1-hydroxy-2-[(3S,4S)-3-{[(6-methanesulfonylpyridin-3-yl)oxy]methyl}-4-methylpyrrolidin-1-yl]ethyl]benzonitrile]	> 10000	> 10000
C[C@@H]1CN(CC(O)c2cccc(C#N)c2)C[C@H]1COc1ccc(S(C)(=O)=O)nc1 (single isomer, unassigned) [Compound 106, 3-[(1R or 1S)-1-hydroxy-2-[(3S,4S)-3-{[(6-methanesulfonylpyridin-3-yl)oxy]methyl}-4-methylpyrrolidin-1-yl]ethyl]benzonitrile]	> 10000	> 10000
C[C@@H]1CN(C(CO)Cc2cccc(Cl)c2)C[C@H]1COc1ccc(S(C)(=O)=O)cc1 (single isomer, unassigned) [Compound 116, (2R or 2S)-3-(3-chlorophenyl)-2-[(3S,4S)-3-[(4-methanesulfonylphenoxy)methyl]-4-methylpyrrolidin-1-yl]propan-1-ol]	1700	> 10000
C[C@@H]1CN(C(CO)Cc2cccc(Cl)c2)C[C@H]1COc1ccc(S(C)(=O)=O)cc1 (single isomer, unassigned) [Compound 117, (2S or 2R)-3-(3-chlorophenyl)-2-[(3S,4S)-3-[(4-methanesulfonylphenoxy)methyl]-4-methylpyrrolidin-1-yl]propan-1-ol]	483	755
CS(=O)(=O)c1ccc(OC[C@@H]2CN(C(CO)Cc3cccc(Cl)c3)CCN2)cc1 (single isomer, unassigned) [Compound 118, (2R or 2S)-3-(3-chlorophenyl)-2-[(3S)-3-[(4-methanesulfonylphenoxy)methyl]piperazin-1-yl]propan-1-ol]	1250	> 10000
CS(=O)(=O)c1ccc(OC[C@@H]2CN(C(CO)Cc3cccc(Cl)c3)CCN2)cc1 (single isomer, unassigned) [Compound 119, (2S or 2R)-3-(3-chlorophenyl)-2-[(3S)-3-[(4-methanesulfonylphenoxy)methyl]piperazin-1-yl]propan-1-ol]	2330	633
C[C@@H]1CN(C(CO)Cc2cc(Cl)cc(C#N)c2)C[C@H]1COc1ccc(S(C)(=O)=O)cc1 (single isomer, unassigned) [Compound 121, 3-chloro-5-[(2R or 2S)-3-hydroxy-2-[(3S,4S)-3-[(4-methanesulfonylphenoxy)methyl]-4-methylpyrrolidin-1-yl]propyl]benzonitrile]	1110	> 10000
C[C@@H]1CN(C(CO)Cc2cc(Cl)cc(C#N)c2)C[C@H]1COc1ccc(S(C)(=O)=O)cc1 (single isomer, unassigned) [Compound 122, 3-chloro-5-[(2S or 2R)-3-hydroxy-2-[(3S,4S)-3-[(4-methanesulfonylphenoxy)methyl]-4-methylpyrrolidin-1-yl]propyl]benzonitrile]	1110	789
CS(=O)(=O)c1ccc(OCC2C[C@@H](CO)N(CCc3cccc(Cl)c3)C2)cc1 (single isomer, unassigned) [Compound 123, [(2S,4S or 4R)-1-[2-(3-chlorophenyl)ethyl]-4-[(4-methanesulfonylphenoxy)methyl]pyrrolidin-2-yl]methanol]	201	393
CS(=O)(=O)c1ccc(OCC2C[C@@H](CO)N(CCc3cccc(Cl)c3)C2)cc1 (single isomer, unassigned) [Compound 124, [(2S,4R or 4S)-1-[2-(3-chlorophenyl)ethyl]-4-[(4-methanesulfonylphenoxy)methyl]pyrrolidin-2-yl]methanol]	4920	5310
CS(=O)(=O)c1ccc(OC[C@H]2C[C@H]3CCCC(Cc4cc(Cl)cc(C#N)c4)N3C2)cc1 (single isomer, unassigned) [Compound 125, 3-{[(2S,5R or 5S,8aR)-2-[(4-methanesulfonylphenoxy)methyl]-octahydroindolizin-5-yl]methyl}-5-chlorobenzonitrile]	2210	449
C[C@@H]1CN(CC(CO)c2cc(Cl)cc(C#N)c2)C[C@H]1COc1ccc(S(C)(=O)=O)cc1 (single isomer, unassigned) [Compound 127, 3-chloro-5-[(2R or 2S)-1-hydroxy-3-[(3S,4S)-3-[(4-methanesulfonylphenoxy)methyl]-4-methylpyrrolidin-1-yl]propan-2-yl]benzonitrile]	2220	> 10000
C[C@@H]1CN(CC(CO)c2cc(Cl)cc(C#N)c2)C[C@H]1COc1ccc(S(C)(=O)=O)cc1 (single isomer, unassigned) [Compound 128, 3-chloro-5-[(2S or 2R)-1-hydroxy-3-[(3S,4S)-3-[(4-methanesulfonylphenoxy)methyl]-4-methylpyrrolidin-1-yl]propan-2-yl]benzonitrile]	1510	711
